Data reported in ChEMBL document CHEMBL1135808, “A new type of mixed anhydride and its applications to the synthesis of 7-substituted 8-chloro-5,5-dioxoimidazo[1,2-b][1,4,2]benzodithiazines with in vitro antitumor activity” (2002).

Each compound was assayed on OVCAR-3 (assay: In vitro total growth inhibition against ovarian cancer OVCAR-3 cell lines was reported.). Details: Homo sapiens, read-out: Log TGI (converted).
Assay type: functional

Structure (SMILES) | TGI [µM]
O=C(Nc1nccs1)c1cc2c(cc1Cl)Sc1nccn1S2(=O)=O | 28.2

What follows are compounds tested on K562 (assay: In vitro total growth inhibition against leukemia K-562 cell lines was reported.). Details: Homo sapiens, read-out: Log TGI (converted).
Assay type: functional

Structure (SMILES) | TGI [µM]
O=C(Nc1nccs1)c1cc2c(cc1Cl)Sc1nccn1S2(=O)=O | 46.8

What follows are compounds tested on Tumor Cell line (assay: In vitro total growth inhibition for 50 cell lines was reported as log of molar concentration). Details: not given.
Assay type: functional, Homo sapiens

Structure (SMILES) | Log GTI
O=C(Nc1nccs1)c1cc2c(cc1Cl)Sc1nccn1S2(=O)=O | -4.04

The compounds below were run on RPMI-8226 (assay: In vitro growth inhibition against leukemia […] cell line was reported.). Details: Homo sapiens.
Assay type: functional

Structure (SMILES) | GI50 [µM]
O=C(Nc1nccs1)c1cc2c(cc1Cl)Sc1nccn1S2(=O)=O | 9.33

The compounds below were run on HOP-92 (assay: In vitro growth inhibition against non-small-cell lung cancer HOP-92 cell line was reported.). Details: Homo sapiens.
Assay type: functional

Structure (SMILES) | GI50 [µM]
O=C(Nc1nccs1)c1cc2c(cc1Cl)Sc1nccn1S2(=O)=O | 15.1

The compounds below were run on OVCAR-4 (assay: Log of molar concentration leading to 50% cell death against ovarian cancer OVCAR-4 cell line was reported). Details: Homo sapiens, read-out: Log LC50 (the source's name) (converted).
Assay type: functional

Structure (SMILES) | CC50 [µM]
O=C(Nc1nccs1)c1cc2c(cc1Cl)Sc1nccn1S2(=O)=O | 91.2

What follows are compounds tested on HOP-62 (assay: In vitro growth inhibition against non-small-cell lung cancer HOP-62 cell line was reported.). Details: Homo sapiens.
Assay type: functional

Structure (SMILES) | GI50 [µM]
O=C(Nc1nccs1)c1cc2c(cc1Cl)Sc1nccn1S2(=O)=O | 14.8

Each compound was assayed on LOX IMVI (assay: In vitro growth inhibition against melanoma LOX IMVI cell line was reported.). Details: Homo sapiens.
Assay type: functional

Structure (SMILES) | GI50 [µM]
O=C(Nc1nccs1)c1cc2c(cc1Cl)Sc1nccn1S2(=O)=O | 11

Each compound was assayed on NCI/ADR-RES (assay: In vitro growth inhibition against breast cancer NCI/ADR-RES cell line was reported.). Details: Homo sapiens.
Assay type: functional

Structure (SMILES) | GI50 [µM]
O=C(Nc1nccs1)c1cc2c(cc1Cl)Sc1nccn1S2(=O)=O | 19.1

What follows are compounds tested on OVCAR-5 (assay: In vitro growth inhibition against ovarian cancer OVCAR-5 cell line was reported.). Details: Homo sapiens.
Assay type: functional

Structure (SMILES) | GI50 [µM]
O=C(Nc1nccs1)c1cc2c(cc1Cl)Sc1nccn1S2(=O)=O | 21.9

These compounds were tested on 786-0 (assay: In vitro total growth inhibition against renal cancer […] cell lines was reported.). Details: Homo sapiens, read-out: Log TGI (converted).
Assay type: functional

Structure (SMILES) | TGI [µM]
O=C(Nc1nccs1)c1cc2c(cc1Cl)Sc1nccn1S2(=O)=O | 29.5

What follows are compounds tested on NCI-H46 (assay: In vitro total growth inhibition against non-small-cell lung cancer […] cell lines was reported.). Details: Homo sapiens, read-out: Log TGI (converted).
Assay type: functional

Structure (SMILES) | TGI [µM]
O=C(Nc1nccs1)c1cc2c(cc1Cl)Sc1nccn1S2(=O)=O | 29.5

Each compound was assayed on NCI-H522 (assay: Log of molar concentration leading to 50% cell death against non-small-cell lung cancer NCI-522 cell line was reported). Details: Homo sapiens, read-out: Log LC50 (the source's name) (converted).
Assay type: functional

Structure (SMILES) | CC50 [µM]
O=C(Nc1nccs1)c1cc2c(cc1Cl)Sc1nccn1S2(=O)=O | 6.61

What follows are compounds tested on DU-145 (assay: Log of molar concentration leading to 50% cell death against prostate cancer […] cell line was reported). Details: Homo sapiens, read-out: Log LC50 (the source's name) (converted).
Assay type: functional

Structure (SMILES) | CC50 [µM]
O=C(Nc1nccs1)c1cc2c(cc1Cl)Sc1nccn1S2(=O)=O | 27.5

The compounds below were run on OVCAR-8 (assay: In vitro total growth inhibition against ovarian cancer OVCAR-8 cell lines was reported.). Details: Homo sapiens, read-out: Log TGI (converted).
Assay type: functional

Structure (SMILES) | TGI [µM]
O=C(Nc1nccs1)c1cc2c(cc1Cl)Sc1nccn1S2(=O)=O | 37.2

Each compound was assayed on SR (assay: In vitro growth inhibition against leukemia SR cell line was reported.). Details: Homo sapiens.
Assay type: functional

Structure (SMILES) | GI50 [µM]
O=C(Nc1nccs1)c1cc2c(cc1Cl)Sc1nccn1S2(=O)=O | 3.02

What follows are compounds tested on UACC-62 (assay: In vitro growth inhibition against melanoma UACC-62 cell line was reported.). Details: Homo sapiens.
Assay type: functional

Structure (SMILES) | GI50 [µM]
O=C(Nc1nccs1)c1cc2c(cc1Cl)Sc1nccn1S2(=O)=O | 14.5

What follows are compounds tested on NCI-H226 (assay: In vitro growth inhibition against non-small-cell lung cancer NCI-H226 cell line was reported.). Details: Homo sapiens.
Assay type: functional

Structure (SMILES) | GI50 [µM]
O=C(Nc1nccs1)c1cc2c(cc1Cl)Sc1nccn1S2(=O)=O | 19.5

Each compound was assayed on A498 (assay: In vitro total growth inhibition against renal cancer A-498 cell lines was reported.). Details: Homo sapiens, read-out: Log TGI (converted).
Assay type: functional

Structure (SMILES) | TGI [µM]
O=C(Nc1nccs1)c1cc2c(cc1Cl)Sc1nccn1S2(=O)=O | 34.7

The compounds below were run on OVCAR-8 (assay: Log of molar concentration leading to 50% cell death against ovarian cancer OVCAR-8 cell line was reported). Details: Homo sapiens, read-out: Log LC50 (the source's name) (converted).
Assay type: functional

Structure (SMILES) | CC50 [µM]
O=C(Nc1nccs1)c1cc2c(cc1Cl)Sc1nccn1S2(=O)=O | 79.4

The compounds below were run on DU-145 (assay: In vitro total growth inhibition against prostate cancer […] cell lines was reported.). Details: Homo sapiens, read-out: Log TGI (converted).
Assay type: functional

Structure (SMILES) | TGI [µM]
O=C(Nc1nccs1)c1cc2c(cc1Cl)Sc1nccn1S2(=O)=O | 30.2

These compounds were tested on UACC-257 (assay: In vitro total growth inhibition against melanoma UACC-257 cell line was reported.). Details: Homo sapiens.
Assay type: functional

Structure (SMILES) | GI50 [µM]
O=C(Nc1nccs1)c1cc2c(cc1Cl)Sc1nccn1S2(=O)=O | 13.8

What follows are compounds tested on U-251 (assay: In vitro growth inhibition against CNS cancer U251 cell line was reported.). Details: Homo sapiens.
Assay type: functional

Structure (SMILES) | GI50 [µM]
O=C(Nc1nccs1)c1cc2c(cc1Cl)Sc1nccn1S2(=O)=O | 17.4

These compounds were tested on SK-MEL-2 (assay: In vitro growth inhibition against melanoma SK-MEL-2 cell line was reported.). Details: Homo sapiens.
Assay type: functional

Structure (SMILES) | GI50 [µM]
O=C(Nc1nccs1)c1cc2c(cc1Cl)Sc1nccn1S2(=O)=O | 17.4

The compounds below were run on MOLT-4 (assay: In vitro growth inhibition against leukemia MOLT-4 cell line was reported.). Details: Homo sapiens.
Assay type: functional

Structure (SMILES) | GI50 [µM]
O=C(Nc1nccs1)c1cc2c(cc1Cl)Sc1nccn1S2(=O)=O | 19.1

What follows are compounds tested on HT-29 (assay: In vitro total growth inhibition against colon cancer HT-29 cell lines was reported.). Details: Homo sapiens, read-out: Log TGI (converted).
Assay type: functional

Structure (SMILES) | TGI [µM]
O=C(Nc1nccs1)c1cc2c(cc1Cl)Sc1nccn1S2(=O)=O | 46.8

These compounds were tested on HOP-62 (assay: In vitro total growth inhibition against non-small-cell lung cancer HOP-62 cell lines was reported.). Details: Homo sapiens, read-out: Log TGI (converted).
Assay type: functional

Structure (SMILES) | TGI [µM]
O=C(Nc1nccs1)c1cc2c(cc1Cl)Sc1nccn1S2(=O)=O | 30.2

Each compound was assayed on HCC 2998 (assay: In vitro total growth inhibition against colon cancer HCC2998 cell lines was reported.). Details: Homo sapiens, read-out: Log TGI (converted).
Assay type: functional

Structure (SMILES) | TGI [µM]
O=C(Nc1nccs1)c1cc2c(cc1Cl)Sc1nccn1S2(=O)=O | 29.5

These compounds were tested on MCF7 (assay: In vitro growth inhibition against breast cancer MCF 7 cell line was reported.). Details: Homo sapiens.
Assay type: functional

Structure (SMILES) | GI50 [µM]
O=C(Nc1nccs1)c1cc2c(cc1Cl)Sc1nccn1S2(=O)=O | 6.76

What follows are compounds tested on M14 (assay: Log of molar concentration leading to 50% cell death against melanoma M14 cell line was reported). Details: Homo sapiens, read-out: Log LC50 (the source's name) (converted).
Assay type: functional

Structure (SMILES) | CC50 [µM]
O=C(Nc1nccs1)c1cc2c(cc1Cl)Sc1nccn1S2(=O)=O | 67.6
